Measurements as given in PubChem BioAssay AID1117361 (Southern Research Institute, 2015).

Target: Protein Tat (Human immunodeficiency virus type 1 group M subtype B (isolate HXB2)) (UniProt P04608)
Test: HIV-1 Tat–TAR interaction blockers – biochemical, fluorescence polarization, FAM-labeled TAR RNA, counter-screen for Vif-APOBEC3G degradation inhibitor project, dose response (AID 1117361)
Conditions: Tat-TAR RNA binding

Sequence of Protein Tat (Human immunodeficiency virus type 1 group M subtype B (isolate HXB2)) (P04608 whole entry, looked up): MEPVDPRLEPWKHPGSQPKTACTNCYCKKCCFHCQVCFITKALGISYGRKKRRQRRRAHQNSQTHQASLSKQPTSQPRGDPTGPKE

SMILES | IC50 [µM]
CCN(CC)c1ccc2c(c1)CCCN2 | 2.89
C=C(C)C(=O)Nc1cccc(C2=NOC3(C2)C[C@H](C(N)=O)N(C(=O)COc2ccc(Cl)cc2)C3)c1 (some centres not stated) | 17.3
O=c1c(O)cccc2cc(O)c(O)c(O)c12 | 3.96
Cc1ccc(/C=C2\SC(=S)N(c3cccnc3)C2=O)o1 | 5.44
O=C(O)C1=NN(c2cc(Cl)c(S(=O)(=O)O)cc2Cl)C(=O)C1 | 30.9
O=C(O)C1Nc2c(Cl)cc(Cl)cc2C2C=CCC12 (configuration not stated) | 94.4
COC(=O)C1=C(C)NC(=O)/C1=C\c1cc(C)n(-c2ccccc2C)c1C | 28.7
O=S(=O)(O)c1cc(O)c(N=Nc2ccc(O)cc2O)c2ccccc12 | 51.3
O=C(CN1C(=O)NC2(CCCCCCC2)C1=O)NCc1cccs1 | 36.5
CCN1CCN(c2cc(N3CCN(C(=O)c4ccco4)CC3)c3c4c(onc24)-c2ccccc2C3=O)CC1 | 5.77
Cc1ccc(N/N=C/c2c(C)c(C#N)c(=O)n(C)c2O)cc1C | 11.9
O=C(O)CCCCC1CCSS1 (configuration not stated) | 5.89
COCCNC(=O)Nc1ccc2nc(-c3ccco3)c(-c3ccco3)nc2c1 | 2.17
O=C1NN(c2ccc(Cl)cc2)C(=O)/C1=C\c1ccc(-c2cccc(C(=O)O)c2)o1 | 23.4
C(=C\c1ccco1)/c1ccc2ccccc2n1 | 9.39
O=C1/C(=C\c2ccco2)SC(=S)N1c1ccccc1 | 9.64
CN(C)c1ccc(N2C(=O)CSC2=S)cc1 | 54.6
Cc1cc(C(=O)Nc2sc3c(c2C#N)CCCCC3)cs1 | 23.6
O=C(O)CCc1ccc(-c2cccs2)n1-c1ccc(C(=O)O)cc1 | 45.6

SMILES | IC50 [µM]
c1ccc2c(c1)CCCN2Cc1nnc2n1CCCCC2 | 4.29
CCN(CC)C(=O)c1ccc(CS(=O)(=O)c2ccc(OC)cc2)o1 | 2.35
COC/C=C/C1=CC2=CC(=O)C(C)(OC(=O)c3ccco3)C(=O)C2=CO1 (configuration not stated) | 7.47
O=C(COC(=O)c1ccc(NS(=O)(=O)c2cccs2)cc1)NCc1ccco1 | 16.4
Cc1cc(C)c([N+](=O)[O-])cc1-c1ccc(/C=N/c2c(-c3ccco3)nc3ccccn23)o1 | 57.5
O=C1CCCC(O)=C1N=Nc1ccc(S(=O)(=O)N2CCOCC2)cc1 | 37.6
CCCCN1C2CCCC1CC(NC(=O)c1ccc(OC)c(OC)c1)C2 (configuration not stated) | 78.3
C/C(=N\Nc1ccc([N+](=O)[O-])cc1[N+](=O)[O-])c1cc2c(ccc3ccccc32)oc1=O | 15.6
CCC(c1nnnn1C(C)(C)CC)N(CCCO)Cc1cc2cc(C)cc(C)c2[nH]c1=O (configuration not stated) | 1.88
CCCCn1c(SCC(=O)NCc2ccco2)nc2ccc(N3CCOCC3)cc2c1=O | 22.8
COc1ccc(NC(=S)NCCc2ccccc2OC)c(OC)c1 | 13.7
CNC(=O)c1ccccc1NC(=O)c1ccc(C)c(S(=O)(=O)N2CCCCC2)c1 | 0.969
COC(=O)c1ccc(COc2ccccc2/C=C(\C#N)C(=O)Nc2c(C)cc(C)cc2C)cc1 | 46.2
CC1CCN(Cc2c(O)ccc3c2O/C(=C\c2ccco2)C3=O)CC1 | 4.79
CN(C)N1C(N)=C(C#N)C(c2cccnc2)C2=C1CCCC2=O (configuration not stated) | 15.3
CCOC1(OCC)N=C(N)C2(C#N)C(c3cccc(OC)c3OC)C12C#N (configuration not stated) | 1.59
CCC(=O)NNc1ncnc2ccccc12 | 44.5
CCc1ccc(N2C(=O)NC(=O)/C(=C\C=C\c3ccco3)C2=O)cc1 | 45
Cc1cc2c(N)cccc2nn1 | 2.08

SMILES | IC50 [µM]
CN(CCC#N)C(=O)COC(=O)c1c2c(nc3ccccc13)/C(=C\c1ccco1)CC2 | 79.8
CC(=O)c1sc2nc(-c3ccco3)ccc2c1N | 4.64
CCOC(=O)NC1(NC2CCCCC2)Oc2ccccc2O1 | 88.4
Cc1ccc(C)n1-c1sccc1C(=O)O | 0.909
CCOc1cccc(=O)c2c(C)n(Cc3ccco3)c(C)c12 | 2.95
COC(=O)C1=C(N)OC2=C(C(=O)CCC2)C1c1cccs1 (configuration not stated) | 52.2
CC1(CCl)N([O-])C2=C(CCCC2)[N+]1=O (configuration not stated) | 44.6
CC(=O)c1ccc(NC(=O)c2ccc3nc(-c4ccco4)c(-c4ccco4)nc3c2)cc1 | 7.73
O=c1c2cc(N3CCOCC3)ccc2[nH]c(=S)n1Cc1ccco1 | 38.7
N=C1/C(=C\c2ccc(SCc3ccco3)o2)C(=O)N=C2SC=NN12 | 2.49
C=C(C)C(=O)Nc1cccc(C2=NOC3(C2)C[C@@H](C(N)=O)N(C(=O)/C=C/CC)C3)c1 (some centres not stated) | 24.5
Cc1onc(-c2c(F)cccc2Cl)c1C(=O)Nc1nnc(C2CC2)s1 | 60.7
CC(=O)NN1C(=O)/C(=C\c2ccc(Br)o2)SC1=S | 4.82
Cc1ccc2cc(CN(Cc3nnnn3Cc3ccco3)CC3CCCO3)c(=O)[nH]c2c1C (configuration not stated) | 29.4
O=C(NCCO)c1ccc2nc(-c3ccco3)c(-c3ccco3)nc2c1 | 7.34
Cc1ccc(C)n1-c1ccc(-c2nnc3n2CCCCC3)s1 | 54.2
CCOC(=O)C1=C(N)n2c(s/c(=C\c3ccco3)c2=O)=C(C(=O)OC(C)C)C1c1ccco1 (configuration not stated) | 3.45
C=C(C)C(=O)Nc1ccc2c(c1)OCCOCCOCCO2 | 21.6
C=CCOC(=O)C1=C(C)NC(SCC(=O)Nc2ccccc2)=C(C#N)C1c1ccco1 (configuration not stated) | 57.5
